The values below are quoted from earlier work in patent US20030124075A1, “Use of a composition containing at least one oxidation-sensitive hydrophilic active principle and at least one N-vinylimidazole polymer or copolymer” (L'OREAL, priority 2001, published 2003).

The subject of one series is melanocytes. Particulars: Pigment. Cell. Res., 13, 2000.
The conditions of series [1]: J. Am. Acad. Dermatol., 1996, 34, 29-33.
Another series deals with T1, tyrosinase (Homo sapiens, UniProt P14679).
T1 sequence (P14679 19-529): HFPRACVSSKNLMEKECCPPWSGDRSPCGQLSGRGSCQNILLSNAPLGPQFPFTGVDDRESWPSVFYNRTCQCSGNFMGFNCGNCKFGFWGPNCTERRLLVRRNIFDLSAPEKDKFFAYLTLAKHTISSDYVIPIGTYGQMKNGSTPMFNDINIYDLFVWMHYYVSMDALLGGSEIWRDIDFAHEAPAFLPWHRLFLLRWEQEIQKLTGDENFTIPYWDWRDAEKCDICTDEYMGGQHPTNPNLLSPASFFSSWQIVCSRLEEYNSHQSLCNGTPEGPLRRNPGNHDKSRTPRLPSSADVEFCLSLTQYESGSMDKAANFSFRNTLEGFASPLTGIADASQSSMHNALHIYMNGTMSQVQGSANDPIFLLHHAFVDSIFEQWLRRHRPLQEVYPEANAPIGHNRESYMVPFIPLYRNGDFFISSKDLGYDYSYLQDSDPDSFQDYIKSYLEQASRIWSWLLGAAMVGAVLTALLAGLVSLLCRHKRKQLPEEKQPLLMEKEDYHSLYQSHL
Particulars: J. Soc. Cosmet. Chem., 42, 1991.

`O=C1O[C@H]([C@@H](O)CO)C([O-])=C1OP(=O)([O-])[O-].O=C1O[C@H]([C@@H](O)CO)C([O-])=C1OP(=O)([O-])[O-].[Mg+2].[Mg+2].[Mg+2]` [magnesium ascorbyl phosphate]: in the series on melanocytes, the dendricity of melanocytes entry is “can reduce the dendricity of melanocytes”. Further, the bioavailability result in series [1] is given as “very low”. Turning to `O=C1O[C@H]([C@@H](O)CO)C(O)=C1O` [ascorbic acid], the “inhibiting effect on tyrosinase” value on tyrosinase is reported as “has been demonstrated”.
